# Where two headings read alike, the source gives them in different places.
# How the values were obtained:
# Test in all cases: Proliferation assay (CellTiter Glo)
# A549 = format: cell-based; conditions: 96 hours; for Top Inhibition %: % of top inhibition; for EC50: Homo sapiens
# Protocol: (§1) The dose range for most compounds was 4.6 nM-30 μM. The dose ranges for some compounds were adjusted downward to 0.46 nM-3 μM or 0.08 nM-0.5 μM or 0.03 nM-0.2 μM. […] The results are shown in Tables 3-6 for pancreatic cancer, lung cancer, colon/gastric cancer, and leukemia.
# AGS = format: cell-based; conditions: 96 hours; for Top Inhibition %: % of top inhibition; for EC50: Homo sapiens
# Protocol: as §1
# AsPC-1 = format: cell-based; conditions: 96 hours; for Top Inhibition %: % of top inhibition; for EC50: Homo sapiens, ASPC1
# Protocol: as §1
# CCRF-CEM = format: cell-based; conditions: 96 hours; for Top Inhibition %: % of top inhibition; for EC50: Homo sapiens
# Protocol: as §1
# Capan-1 = format: cell-based; conditions: 96 hours; for Top Inhibition %: % of top inhibition; for EC50: Homo sapiens
# Protocol: as §1
# H358 = format: cell-based; conditions: HE58, 96 hours; for Top Inhibition %: % of top inhibition; for EC50: Homo sapiens, NCI-H358
# Protocol: as §1
# H441 = format: cell-based; conditions: 96 hours; for Top Inhibition %: % of top inhibition; for EC50: Homo sapiens, NCI-H441
# Protocol: as §1
# H727 = format: cell-based; conditions: 96 hours; for Top Inhibition %: % of top inhibition; for EC50: Homo sapiens, NCI-H727
# Protocol: as §1
# HCT116 = format: cell-based; conditions: 96 hours; for Top Inhibition %: % of top inhibition; for EC50: Homo sapiens, HCT-116
# Protocol: as §1
# KP-4 = format: cell-based; conditions: 96 hours; for EC50: Homo sapiens; for Top Inhibition %: % of top inhibition
# Protocol: as §1
# LS180 = format: cell-based; conditions: 96 hours; for EC50: Homo sapiens; for Top Inhibition %: % of top inhibition
# Protocol: as §1
# Pan2.03 = format: cell-based; conditions: 96 hours; for Top Inhibition %: % of top inhibition
# Protocol: as §1
# Pan2.13 = format: cell-based; conditions: 96 hours; for Top Inhibition %: % of top inhibition
# Protocol: as §1
# SW620 = format: cell-based; conditions: 96 hours; for EC50: Homo sapiens, SW-620; for Top Inhibition %: % of top inhibition
# Protocol: as §1
# MiaPaCa-2 = format: cell-based; conditions: 96 hours; for EC50: Homo sapiens, MIA PaCa-2
# HL60 = format: cell-based, human; conditions: 96 hours; for Top Inhibition %: % of top inhibition; for EC50: Homo sapiens, HL-60
# Protocol: as §1
# THP1 = format: cell-based, human; conditions: 96 hours; for EC50: Homo sapiens, THP-1; for Top Inhibition %: % of top inhibition
# Protocol: as §1
# BxPC-3 = format: cell-based; conditions: BxPC-3 (RAS WT); 96 hours
# Colo205 = format: cell-based; conditions: Colo205 (RAS WT); 96 hours
# H1915 = format: cell-based; conditions: H1915 (RAS WT); 96 hours
# H838 = format: cell-based; conditions: H838 (RAS WT); 96 hours
# HT29 = format: cell-based; conditions: HT29 (RAS WT); 96 hours
# RPMI8226 = format: cell-based; conditions: RPM18226; 96 hours
# SW900 = format: cell-based; conditions: SW900 (K-RAS: G12V); 96 hours
# [1] = A549 (K-RAS: G12S), absolute EC50, read-out: Ab EC50
# [2] = A549, relative EC50, read-out: Re EC50
# [3] = AGS (gastric, K-RAS: G12D), absolute EC50, read-out: Ab EC50
# [4] = AGS, relative EC50, read-out: Re EC50
# [5] = AsPC-1 (K-RAS: G12D), absolute EC50, read-out: Ab EC50
# [6] = AsPC-1, relative EC50, read-out: Re EC50
# [7] = CCRF-CEM (K-RAS: G12D), absolute EC50, read-out: Ab EC50
# [8] = CCRF-CEM, relative EC50, read-out: Re EC50
# [9] = Capan-1 (K-RAS: G12V), absolute EC50, read-out: Ab EC50
# [10] = Capan-1, relative EC50, read-out: Re EC50
# [11] = absolute EC50, read-out: Ab EC50
# [12] = relative EC50, read-out: Re EC50
# [13] = H441 (K-RAS: G12V), absolute EC50, read-out: Ab EC50
# [14] = H441, relative EC50, read-out: Re EC50
# [15] = H727 (K-RAS: G12V), absolute EC50, read-out: Ab EC50
# [16] = H727, relative EC50, read-out: Re EC50
# [17] = HCT116 (K-RAS: G13D), absolute EC50, read-out: Ab EC50
# [18] = KP-4 (K-RAS: G12C), absolute EC50, read-out: Ab EC50
# [19] = KP-4, relative EC50, read-out: Re EC50
# [20] = LS180 (K-RAS: G12D), absolute EC50, read-out: Ab EC50
# [21] = Pan2.03 (K-RAS: G12D), absolute EC50, read-out: Ab EC50
# [22] = Pan2.03, relative EC50, read-out: Re EC50
# [23] = Pan2.13 (K-RAS: Q61H), absolute EC50, read-out: Ab EC50
# [24] = Pan2.13, relative EC50, read-out: Re EC50
# [25] = SW620 (K-RAS: G12V), absolute EC50, read-out: Ab EC50
# [26] = MiaPaCa-2 (K-RAS: G12C), absolute EC50, read-out: Ab EC50
# [27] = MiaPaCa-2, relative EC50, read-out: Re EC50
# [28] = HL60 (N-RAS: Q61L), absolute EC50, read-out: Ab EC50
# [29] = HL60, relative EC50, read-out: Re EC50
# [30] = THP1 (N-RAS: G12D), absolute EC50, read-out: Ab EC50
# [31] = THP1, relative EC50, read-out: Re EC50
structure (smiles),measurement,setting,value
"CC(=O)O[C@@]12C[C@@H](C)[C@@]3(O)[C@@H](C=C(CO)C[C@]4(O)C(=O)C(C)=C[C@@H]34)[C@@H]1C2(C)C [Compound K101A, 12-deoxyphorbol 13-acetate]",Top Inhibition %,A549; A549,76.0%
same,EC50,A549; [1],490 nM
same,EC50,A549; [2],270 nM
same,Top Inhibition %,AGS; AGS,21.7%
same,EC50,AGS; [3],> 30000 nM
same,EC50,AGS; [4],490 nM
same,Top Inhibition %,AsPC-1; AsPC-1,32.4%
same,EC50,AsPC-1; [5],> 30000 nM
same,EC50,AsPC-1; [6],270 nM
same,Top Inhibition %,CCRF-CEM; CCRF-CEM,35.9%
same,EC50,CCRF-CEM; [7],> 30000 nM
same,EC50,CCRF-CEM; [8],51 nM
same,Top Inhibition %,Capan-1; Capan-1,37.1%
same,EC50,Capan-1; [9],> 30000 nM
same,EC50,Capan-1; [10],310 nM
same,Top Inhibition %,H358,56.4%
same,EC50,H358; [11],4900 nM
same,EC50,H358; [12],160 nM
same,Top Inhibition %,H441; H441,42.1%
same,EC50,H441; [13],> 30000 nM
same,EC50,H441; [14],320 nM
same,Top Inhibition %,H727; H727,48.3%
same,EC50,H727; [15],> 30000 nM
same,EC50,H727; [16],190 nM
same,Top Inhibition %,HCT116; HCT116,17.4%
same,EC50,HCT116; [17],> 30000 nM
same,EC50,KP-4; [18],400 nM
same,EC50,KP-4; [19],190 nM
same,Top Inhibition %,KP-4; KP-4,63.3%
same,EC50,LS180; [20],> 30000 nM
same,Top Inhibition %,LS180; LS180,4.4%
same,EC50,Pan2.03; [21],> 30000 nM
same,Top Inhibition %,Pan2.03; Pan2.03,27.0%
same,EC50,Pan2.03; [22],120 nM
same,EC50,Pan2.13; [23],> 30000 nM
same,Top Inhibition %,Pan2.13; Pan2.13,43.4%
same,EC50,Pan2.13; [24],17 nM
same,EC50,SW620; [25],> 30000 nM
same,Top Inhibition %,SW620; SW620,0.0%
same,EC50,MiaPaCa-2; [26],300 nM
same,EC50,MiaPaCa-2; [27],180 nM
same,Top Inhibition %,"MiaPaCa-2; MiaPaCa-2, % of top inhibition",74.4%
same,Top Inhibition %,HL60; HL60,61.3%
same,EC50,HL60; [28],470 nM
same,EC50,HL60; [29],400 nM
same,EC50,THP1; [30],870 nM
same,EC50,THP1; [31],300 nM
same,Top Inhibition %,THP1; THP1,51.8%
same,Top Inhibition %,BxPC-3,40.11%
same,Top Inhibition %,Colo205,83.6%
same,Top Inhibition %,H1915,27.7%
same,Top Inhibition %,H838,10.1%
same,Top Inhibition %,HT29,12.8%
same,Top Inhibition %,RPMI8226,32.39%
same,Top Inhibition %,SW900,7.1%
CC(=O)O[C@H]1C(=O)[C@@]2(C)[C@H]([C@H](OC(=O)c3ccccc3)[C@]3(O)C[C@H](OC(=O)[C@H](O)[C@@H](NC(=O)c4ccccc4)c4ccccc4)C(C)=C1C3(C)C)[C@]1(OC(C)=O)CO[C@@H]1C[C@@H]2O [Paclitaxel],Top Inhibition %,A549; A549,86.0%
same,EC50,A549; [1],2.6 nM
same,EC50,A549; [2],2.3 nM
same,Top Inhibition %,AGS; AGS,87.7%
same,EC50,AGS; [3],4.7 nM
same,EC50,AGS; [4],3.9 nM
same,Top Inhibition %,AsPC-1; AsPC-1,60.9%
same,EC50,AsPC-1; [5],10 nM
same,EC50,AsPC-1; [6],3.8 nM
same,Top Inhibition %,CCRF-CEM; CCRF-CEM,97.8%
same,EC50,CCRF-CEM; [7],4 nM
same,EC50,CCRF-CEM; [8],3.9 nM
same,Top Inhibition %,Capan-1; Capan-1,73.5%
same,EC50,Capan-1; [9],11 nM
same,EC50,Capan-1; [10],7.2 nM
same,Top Inhibition %,H358,89.2%
same,EC50,H358; [11],2.4 nM
same,EC50,H358; [12],1.8 nM
same,Top Inhibition %,H441; H441,51.9%
same,EC50,H441; [13],35.8 nM
same,EC50,H441; [14],3.5 nM
same,Top Inhibition %,H727; H727,49.0%
same,EC50,H727; [15],> 500 nM
same,EC50,H727; [16],2.3 nM
same,Top Inhibition %,HCT116; HCT116,94.8%
same,EC50,HCT116; [17],2.2 nM
same,EC50,"HCT116; HCT116, relative EC50, read-out: Re EC50",2.1 nM
same,EC50,KP-4; [18],1.9 nM
same,EC50,KP-4; [19],1.8 nM
same,Top Inhibition %,KP-4; KP-4,96.2%
same,EC50,LS180; [20],14 nM
same,EC50,"LS180; LS180, relative EC50, read-out: Re EC50",8.8 nM
same,Top Inhibition %,LS180; LS180,67.1%
same,EC50,Pan2.03; [21],3.3 nM
same,Top Inhibition %,Pan2.03; Pan2.03,64.7%
same,EC50,Pan2.03; [22],1.8 nM
same,EC50,Pan2.13; [23],65 nM
same,Top Inhibition %,Pan2.13; Pan2.13,53.2%
same,EC50,Pan2.13; [24],2.7 nM
same,EC50,SW620; [25],12 nM
same,EC50,"SW620; SW620, relative EC50, read-out: Re EC50",9.4 nM
same,Top Inhibition %,SW620; SW620,92.1%
same,EC50,MiaPaCa-2; [26],3.4 nM
same,EC50,MiaPaCa-2; [27],3.3 nM
same,Top Inhibition %,HL60; HL60,98.7%
same,EC50,HL60; [28],5.2 nM
same,EC50,HL60; [29],5.2 nM
same,EC50,THP1; [30],8.3 nM
same,EC50,THP1; [31],7.6 nM
same,Top Inhibition %,THP1; THP1,91.2%
same,Top Inhibition %,BxPC-3,91.93%
same,Top Inhibition %,Colo205,97.4%
same,Top Inhibition %,H1915,80.6%
same,Top Inhibition %,H838,96.5%
same,Top Inhibition %,HT29,93.8%
same,Top Inhibition %,RPMI8226,98.98%
same,Top Inhibition %,SW900,81.0%
